# Experimental data as given in patent US10519099B2, “Cystobactamides” (priority 2014, dated 2019).
# Like-named read-outs stand apart in the source and are kept apart here.
# Legend:
# [1] = system: Acinetobacter baumannii DSM-30008; experiment: MIC microdilution, A. baumannii DSM-30008; assay type: cell-based; details: Acinetobacter baumannii, DSM30008
# Experimental: (§1) Indicator strains used in susceptibility assays were either part of our strain collection or purchased from the German Collection of Microorgansims and Cell Cultures (DSMZ) or from the American Type Culture Collection (ATCC). E. coli strain WT and corresponding E. coli mutants were kindly provided by Prof. Dr. P. Heisig, Pharmaceutical Biology and Microbiology, University of Hamburg. E. coli strains JW0401-1 (WT) and Δtsx were obtained from the CGSC collection.
# (§2) MIC values were determined in standardized microdilution assays. Overnight cultures were diluted in the appropriate growth medium to achieve an inoculum of 10^4-10^6 cfu/mL. Yeasts were grown in Myc medium (1% phytone peptone, 1% glucose, 50 mM HEPES, pH 7.0), S. pneumonia and Enterococcus spp. in tryptic soy broth (TSB: 1.7% peptone casein, 0.3% peptone soymeal, 0.25% glucose, 0.5% NaCl, 0.25% K2HPO4; pH 7.3); M. smegmatis in Middlebrook 7H9 medium supplemented with 10% Middlebrook ADC enrichment and 2 ml/I glycerol). All other listed bacteria were grown in Müller-Hinton broth (0.2% beef infusion solids, 1.75% casein hydrolysate, 0.15% starch, pH 7.4). Cystobactamides and reference drugs were added directly to the cultures in sterile 96-well plates as duplicates and serial dilutions were prepared. Microorganisms were grown on a microplate shaker (750 rpm, 30-37° C., 18-48 h), except S. pneumonia, which was grown at non-shaking conditions (37° C., 5% CO2, 18 h). Growth inhibition was assessed by visual inspection and the MIC was defined as the lowest concentration of compound that inhibited visible growth.
# [2] = system: Escherichia coli MI-4 [gyrA(S83L), parC(S80I)]; experiment: MIC microdilution, E. coli MI-4 [gyrA(S83L), parC(S80I)]; assay type: cell-based; details: read-out: MIC Escherichia coli MI-4 [gyrA(S83L), parC(S80I)]
# Experimental: as §1
# as §2, with “Cystobactamides and reference drugs were added directly to the cultures in sterile 96-well plates as duplicates and serial dilutions were prepared. Microorganisms were grown on a microplate shaker (750 rpm, 30-37° C., 18-48 h), except S. pneumonia, which was grown at non-shaking conditions (37° C., 5% CO2, 18 h).” left out
# [3] = system: Citrobacter freundii DSM-30039; experiment: MIC microdilution, C. freundii DSM-30039; assay type: cell-based; details: Citrobacter freundii, DSM30039
# Experimental: as §1, §2
# Bacillus subtilis DSM-10 = experiment: MIC microdilution, Bacillus subtilis DSM-10; assay type: cell-based
# Experimental: as §1
# as §2, with “Cystobactamides and reference drugs were added directly to the cultures in sterile 96-well plates as duplicates and serial dilutions were prepared. Microorganisms were grown on a microplate shaker (750 rpm, 30-37° C., 18-48 h), except S. pneumonia, which was grown at non-shaking conditions (37° C., 5% CO2, 18 h).” left out
# [4] = system: E. coli WT-3 [gyrA(S83L, D87G)]; experiment: MIC microdilution, E. coli WT-3 [gyrA(S83L, D87G)]; assay type: cell-based, Escherichia coli; details: Escherichia coli
# Experimental: as §1, §2
# [5] = system: E. coli WT-III [marRΔ74bp]; experiment: MIC microdilution, E. coli WT-III [marRΔ74bp]; assay type: cell-based, Escherichia coli; details: for MIC E. coli WT-III [marRΔ74bp]: Gram-negative set; for MIC Escherichia coli WTIII (marRΔ74bp): larger panel
# Experimental: as §1, §2
# [6] = system: Escherichia coli DSM-12242 (NAL^R); experiment: MIC microdilution, E. coli DSM-12242 (NAL^R); assay type: cell-based; details: DSM12242, read-out: MIC Escherichia coli DSM-12242 (NAL^R)
# Experimental: as §1
# as §2, with “Cystobactamides and reference drugs were added directly to the cultures in sterile 96-well plates as duplicates and serial dilutions were prepared. Microorganisms were grown on a microplate shaker (750 rpm, 30-37° C., 18-48 h), except S. pneumonia, which was grown at non-shaking conditions (37° C., 5% CO2, 18 h).” left out
# [7] = system: Escherichia coli ATCC25922; experiment: MIC microdilution, E. coli ATCC25922; assay type: cell-based
# Experimental: as §1
# as §2, with “Cystobactamides and reference drugs were added directly to the cultures in sterile 96-well plates as duplicates and serial dilutions were prepared. Microorganisms were grown on a microplate shaker (750 rpm, 30-37° C., 18-48 h), except S. pneumonia, which was grown at non-shaking conditions (37° C., 5% CO2, 18 h).” left out
# [8] = system: Escherichia coli (TolC-deficient); experiment: MIC microdilution, E. coli (TolC-deficient); assay type: cell-based; details: Escherichia coli, read-out: MIC Escherichia coli (TolC-deficient)
# Experimental: as §1
# as §2, with “Cystobactamides and reference drugs were added directly to the cultures in sterile 96-well plates as duplicates and serial dilutions were prepared. Microorganisms were grown on a microplate shaker (750 rpm, 30-37° C., 18-48 h), except S. pneumonia, which was grown at non-shaking conditions (37° C., 5% CO2, 18 h).” left out
# [9] = system: Enterobacter aerogenes DSM-30053; experiment: MIC microdilution, Enterobacter aerogenes DSM-30053; assay type: cell-based; details: Klebsiella aerogenes
# Experimental: as §1
# as §2, with “Cystobactamides and reference drugs were added directly to the cultures in sterile 96-well plates as duplicates and serial dilutions were prepared. Microorganisms were grown on a microplate shaker (750 rpm, 30-37° C., 18-48 h), except S. pneumonia, which was grown at non-shaking conditions (37° C., 5% CO2, 18 h).” left out
# [10] = system: CHO-K1 (Chinese hamster ovary cell line); experiment: Cytotoxicity (MTT), CHO-K1 cell line; assay type: cell-based; details: Cricetulus griseus, CHO-K1, 120 h, 5 d incubation
# Experimental: CHO-K1 cells were obtained from the DSMZ and were cultured under conditions recommended by the depositor. Cells were seeded at 6×10^3 cells/well of 96-well plates in 180 μl complete medium and treated with compounds in serial dilution after 2 h of equilibration. Each sample was tested in duplicate as well as the internal DMSO control. After 5 d incubation, 20 μl of 5 mg/ml MTT (thiazolyl blue tetrazolium bromide) in PBS was added per well and it was further incubated for 2 h at 37° C. The medium was then discarded and cells were washed with 100 μl PBS before adding 100 μl 2-propanol/10 N HCl (250:1) in order to dissolve formazan granules. The absorbance at 570 nm was measured using a microplate reader (Tecan Infinite M200Pro), and cell viability was expressed as percentage relative to the respective […] control.
# E. coli JW0401-1 (WT) = experiment: MIC microdilution, E. coli JW0401-1 (WT); assay type: cell-based, Escherichia coli; details: Escherichia coli; Gram-negative set
# Experimental: as §1
# as §2, with “Cystobactamides and reference drugs were added directly to the cultures in sterile 96-well plates as duplicates and serial dilutions were prepared. Microorganisms were grown on a microplate shaker (750 rpm, 30-37° C., 18-48 h), except S. pneumonia, which was grown at non-shaking conditions (37° C., 5% CO2, 18 h).” left out
# E. coli Δtsx = experiment: MIC microdilution, E. coli Δtsx; assay type: cell-based, Escherichia coli; details: Gram-negative set
# Experimental: as §1
# as §2, with “Cystobactamides and reference drugs were added directly to the cultures in sterile 96-well plates as duplicates and serial dilutions were prepared. Microorganisms were grown on a microplate shaker (750 rpm, 30-37° C., 18-48 h), except S. pneumonia, which was grown at non-shaking conditions (37° C., 5% CO2, 18 h).” left out
# [11] = system: Enterobacter cloacae DSM-30054; experiment: MIC microdilution, Enterobacter cloacae DSM-30054; assay type: cell-based; details: Enterobacter cloacae, DSM30054, read-out: MIC Enterobacter cloacae DSM-30054
# Experimental: Dr. P. Heisig, Pharmaceutical Biology and Microbiology, University of Hamburg.
# Overnight cultures were diluted in the appropriate growth medium to achieve an inoculum of 10^4-10^6 cfu/mL. […] Cystobactamides and reference drugs were added directly to the cultures in sterile 96-well plates as duplicates and serial dilutions were prepared. Microorganisms were grown on a microplate shaker (750 rpm, 30-37° C., 18-48 h), except S. pneumonia, which was grown at non-shaking conditions (37° C., 5% CO2, 18 h). Growth inhibition was assessed by visual inspection and the MIC was defined as the lowest concentration of compound that inhibited visible growth.
# P. aeruginosa gyrase = target: T1, P. aeruginosa gyrase (Pseudomonas aeruginosa, UniProt P48372+Q9I7C2); experiment: P. aeruginosa gyrase DNA supercoiling assay; assay type: biochemical; details: read-out: IC50 Pa gyrase (sc)
# T1 construct: purchased Inspiralis, Norwich, UK
# Experimental: To test the anti-gyrase activity of cystobactamides, commercial E. coli and P. aeruginosa gyrase supercoiling kits (Inspiralis, Norwich, UK) were used. For standard reactions 0.5 μg relaxed plasmid were mixed with 1 unit gyrase in 1× reaction buffer (see kit manual) and incubated for 30 min at 37° C. The reactions were quenched by the addition of DNA gel loading buffer containing 10% (w/v) SDS. The samples were separated on 1% (w/v) agarose gels and DNA was visualized using EtBr. All natural products stock solutions and dilutions were prepared in 100% DMSO and added to the supercoiling reactions giving a final DMSO concentration of 2% (v/v).
# [12] = system: Staphylococcus aureus ATCC29213; experiment: MIC microdilution, Staphylococcus aureus ATCC29213; assay type: cell-based; details: ATCC29213, read-out: MIC Staphylococcus aureus ATCC29213
# Experimental: as §1
# as §2, with “Cystobactamides and reference drugs were added directly to the cultures in sterile 96-well plates as duplicates and serial dilutions were prepared. Microorganisms were grown on a microplate shaker (750 rpm, 30-37° C., 18-48 h), except S. pneumonia, which was grown at non-shaking conditions (37° C., 5% CO2, 18 h).” left out
# [13] = Gram-negative set, read-out: MIC A. baumannii DSM-30008
# [14] = larger panel, read-out: MIC Acinetobacter baumannii DSM-30008
# [15] = Gram-negative set, read-out: MIC C. freundii DSM-30039
# [16] = larger panel, read-out: MIC Citrobacter freundii DSM-30039
# [17] = read-out: MIC E. coli WT-3 [gyrA(S83L, D87G)]
# [18] = read-out: MIC Escherichia coli WT-3 [gyrA(S83L, D87G)]
# T1 sequence (Q9I7C2 whole entry): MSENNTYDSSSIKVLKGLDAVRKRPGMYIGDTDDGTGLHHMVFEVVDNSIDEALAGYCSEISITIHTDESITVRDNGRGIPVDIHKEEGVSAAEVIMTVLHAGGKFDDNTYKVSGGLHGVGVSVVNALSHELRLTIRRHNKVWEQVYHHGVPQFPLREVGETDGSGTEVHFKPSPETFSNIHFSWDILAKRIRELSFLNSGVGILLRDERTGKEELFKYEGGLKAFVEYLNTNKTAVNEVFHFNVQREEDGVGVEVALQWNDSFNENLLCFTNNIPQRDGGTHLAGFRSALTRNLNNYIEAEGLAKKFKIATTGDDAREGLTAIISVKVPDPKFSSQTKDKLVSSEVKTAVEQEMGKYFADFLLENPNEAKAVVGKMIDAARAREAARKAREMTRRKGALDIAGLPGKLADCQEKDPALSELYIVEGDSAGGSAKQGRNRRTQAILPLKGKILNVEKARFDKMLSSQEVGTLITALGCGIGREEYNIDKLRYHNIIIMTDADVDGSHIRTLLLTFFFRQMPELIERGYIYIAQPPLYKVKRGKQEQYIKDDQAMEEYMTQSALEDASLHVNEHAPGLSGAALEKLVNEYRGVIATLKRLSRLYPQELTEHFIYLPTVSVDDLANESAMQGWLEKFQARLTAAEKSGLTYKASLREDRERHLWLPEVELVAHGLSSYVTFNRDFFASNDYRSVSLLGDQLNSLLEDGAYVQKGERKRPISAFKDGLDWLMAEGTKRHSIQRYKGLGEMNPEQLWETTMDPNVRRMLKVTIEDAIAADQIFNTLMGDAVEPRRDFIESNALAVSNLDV
# T1 sequence (P48372 whole entry): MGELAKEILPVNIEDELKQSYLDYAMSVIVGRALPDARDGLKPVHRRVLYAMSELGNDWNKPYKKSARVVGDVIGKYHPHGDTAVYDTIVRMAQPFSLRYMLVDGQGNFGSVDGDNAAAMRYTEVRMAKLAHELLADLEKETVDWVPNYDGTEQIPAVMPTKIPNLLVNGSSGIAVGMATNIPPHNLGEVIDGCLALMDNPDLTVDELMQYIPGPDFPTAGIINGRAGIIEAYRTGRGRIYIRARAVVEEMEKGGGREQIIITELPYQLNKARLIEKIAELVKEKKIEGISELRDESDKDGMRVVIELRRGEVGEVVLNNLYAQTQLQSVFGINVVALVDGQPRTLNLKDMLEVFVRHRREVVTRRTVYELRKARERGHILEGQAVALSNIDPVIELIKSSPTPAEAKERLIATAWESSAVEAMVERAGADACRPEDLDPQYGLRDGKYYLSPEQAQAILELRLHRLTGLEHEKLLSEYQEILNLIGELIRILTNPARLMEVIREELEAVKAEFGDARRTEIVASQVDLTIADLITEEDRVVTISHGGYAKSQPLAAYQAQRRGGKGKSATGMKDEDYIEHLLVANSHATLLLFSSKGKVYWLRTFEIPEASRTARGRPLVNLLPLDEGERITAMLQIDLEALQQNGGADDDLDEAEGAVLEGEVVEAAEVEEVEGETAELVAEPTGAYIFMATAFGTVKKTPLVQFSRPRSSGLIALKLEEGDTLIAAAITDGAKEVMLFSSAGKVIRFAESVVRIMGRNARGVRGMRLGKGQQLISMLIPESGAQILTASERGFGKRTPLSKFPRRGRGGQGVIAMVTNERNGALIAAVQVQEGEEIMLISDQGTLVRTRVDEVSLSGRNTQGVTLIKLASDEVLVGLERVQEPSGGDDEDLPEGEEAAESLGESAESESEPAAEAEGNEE
SMILES,"MIC [1, 13]","MIC [1, 14]",MIC [2],"MIC [3, 15]","MIC [3, 16]","MIC [4, 17]","MIC [4, 18]",MIC E. coli WT-III [marRΔ74bp] [5],MIC Escherichia coli WTIII (marRΔ74bp) [5],MIC [6],other results
"O=C(O)c1cn(C2CC2)c2cc(N3CCNCC3)c(F)cc2c1=O [CP, Ciprofloxacin, reference compound]",0.8 µg/mL,0.2 to 0.4 µg/mL,0.8 µg/mL,0.003 µg/mL,0.003 µg/mL,0.8 µg/mL,0.8 to 1.6 µg/mL,0.1 µg/mL,0.1 µg/mL,0.05 µg/mL,"MIC (Bacillus subtilis DSM-10; DSM10, larger panel, read-out: MIC Bacillus subtilis DSM-10): 0.1 µg/mL; MIC ([7]; ATCC25922, larger panel, read-out: MIC Escherichia coli ATCC25922): 0.006 µg/mL; MIC [8]: 0.01 µg/mL; MIC ([9]; DSM30053, larger panel, read-out: MIC Enterobacter aerogenes DSM-30053): 0.1 to 0.2 µg/mL"
COC(C(N)=O)C(NC(=O)c1ccc(NC(=O)c2ccc([N+](=O)[O-])cc2)cc1)C(=O)Nc1ccc(C(=O)Nc2ccc(C(=O)Nc3ccc(C(=O)O)cc3OC(C)C)c(O)c2OC(C)C)cc1 (stereo not drawn) [Cys 919-2],8 µg/mL,8 µg/mL,2 to 4 µg/mL,1 µg/mL,1 µg/mL,64 µg/mL,16 to 32 µg/mL,>64 µg/mL,64 µg/mL,1 to 2 µg/mL,"IC50 [10]: ~50 µM; MIC (E. coli JW0401-1 (WT)): 1 µg/mL; MIC (Bacillus subtilis DSM-10; DSM10, read-out: MIC Bacillus subtilis DSM-10): 0.1 µg/mL; MIC E. coli Δtsx (E. coli Δtsx): 1 µg/mL; MIC [11]: > 64 µg/mL; IC50 (P. aeruginosa gyrase): 0.34 µM; MIC ([7]; ATCC25922, read-out: MIC Escherichia coli ATCC25922): 0.5 µg/mL; MIC ([9]; DSM30053, read-out: MIC Enterobacter aerogenes DSM-30053): > 64 µg/mL; MIC [12]: 0.1 µg/mL"
